According to patent US10450615B2, “Methods and compositions for detecting gastrointestinal and other cancers” (Case Western Reserve University, priority 2003, dated 2019):

System: vimentin gene expression in colon cancer cell lines
Assay: RT-PCR of vimentin expression in colon cancer cell lines after 5-azacytidine treatment
Type: cell-based, human
Settings: FIG. 2, cell lines with vimentin DNA methylation, optimal tolerated doses ranging from 1 μg/ml to 3 μg/ml, reactivated in V400, V429, V503, RCA, V5, RKO, V432, V703, V457
Procedure: The cultures were grown and treated as described previously (Veigl, et al., 1998, Proc. Natl. Acad. Sci. USA, 95:8698-8702). The optimal tolerated doses were determined for each treated line, and two doses were used for some lines, ranging from 1 μg/ml to 3 μg/ml.
To establish that methylation was responsible for silencing vimentin gene expression, cell lines with vimentin DNA methylation were treated with 5-azacytidine (5-azaC), a demethylating agent.

`Nc1ncn([C@@H]2O[C@H](CO)[C@@H](O)[C@H]2O)c(=O)n1` [5-azaC, 5-azacytidine] was tested, and the “colon cancer cell lines in which vimentin expression was reactivated (induced)” value was 9 of 12.
